Experimental data: patent US12257050B2, “Calibration free in-vivo measurement of analytes using electrochemical sensors” (THE REGENTS OF THE UNIVERSITY OF CALIFORNIA, priority 2017, dated 2025)

Conditions: rat, in vivo, iv, 30 mg/kg
Source text: The drift-resistance of chronoamperometrically-interrogated E-AB sensors is sufficient to support continuous, real-time measurements directly in situ in the blood of live animals. Aminoglycoside-binding E-AB were fabricated sensors on 75 μm-diameter gold micro-wires, encased in 22-gauge catheters for structural support, and deployed directly in the jugular veins of live rats (FIG. 6A). The plasma pharmacokinetics of the antibiotic tobramycin were monitored following an intravenous administration of 30 mg/kg by performing continuous chronoamperometric measurements for a total of two hours (FIG. 6B). Continuous measurements were achieved by pulsing the potential of the E-AB sensors serially between −0.1 V and −0.3 V, holding each pulse with a duration of only 100 ms. Then, non-linear regression analysis was performed of the current transients generated at −0.3 V to extract current decay lifetimes in real time, and these lifetimes were converted to concentration using the previously determined Langmuir isotherm (FIG. 6C). […]
The sub-second time resolution of chronoamperometrically interrogated E-AB sensors measurement of drug pharmacokinetics with unprecedented precision. The distribution, α, and elimination, β, lifetimes of tobramycin were determined by fitting the in vivo data to a two-compartment pharmacokinetic model. […]

NC[C@H]1O[C@H](O[C@H]2[C@H](O)[C@@H](O[C@H]3O[C@H](CO)[C@@H](O)[C@H](N)[C@H]3O)[C@H](N)C[C@@H]2N)[C@H](N)C[C@@H]1O [tobramycin]
distribution lifetime α (first-order time constant of drug distribution): 3.74 ± 0.04 min | elimination lifetime β (elimination time constant): 69 ± 2 min
